# Laboratory results: patent publication US8822451B2, “Modulators of ATP-binding cassette transporters” (Vertex Pharmaceuticals Incorporated, priority 2005, dated 2014)
# Biological target: T1, […]F508-CFTR (Homo sapiens, UniProt P13569, DEL508-508)
# T1 construct: expressed in transfected cells
# Assay: Assay results of Table 3: ΔF508-CFTR modulation, membrane potential optical assay (assay format not stated)
# Format: cell-based
# Conditions: efficacy range; NIH3T3 mouse fibroblasts stably expressing […]F508-CFTR (optical assays)
# Excerpt: A. Membrane Potential Optical Methods for Assaying […]F508-CFTR Modulation Properties of Compounds
# The optical membrane potential assay utilized voltage-sensitive FRET sensors described by Gonzalez and Tsien (See, Gonzalez, J. E. and R. Y. Tsien (1995) “Voltage sensing by fluorescence resonance energy transfer in single cells” Biophys J 69(4): 1272-80, and Gonzalez, J. E. and R. Y. Tsien (1997) “Improved indicators of cell membrane potential that use fluorescence resonance energy transfer” Chem Biol 4(4): 269-77) in combination with instrumentation for measuring fluorescence changes such as the Voltage/Ion Probe Reader (VIPR) (See, Gonzalez, J. E., K. Oades, et al. (1999) “Cell-based assays and instrumentation for screening ion-channel targets” Drug Discov Today 4(9): 431-439).
# These voltage sensitive assays are based on the change in fluorescence resonant energy transfer (FRET) between the membrane-soluble, voltage-sensitive dye, DiSBAC2(3), and a fluorescent phospholipid, CC2-DMPE, which is attached to the outer leaflet of the plasma membrane and acts as a FRET donor. Changes in membrane potential (Vm) cause the negatively charged DiSBAC2(3) to redistribute across the plasma membrane and the amount of energy transfer from CC2-DMPE changes accordingly. The changes in fluorescence emission were monitored using VIPR™ II, which is an integrated liquid handler and fluorescent detector designed to conduct cell-based screens in 96- or 384-well microtiter plates.
# To identify small molecules that correct the trafficking defect associated with ΔF508-CFTR; a single-addition HTS assay format was developed. The cells were incubated in serum-free medium for 16 hrs at 37° C. in the presence or absence (negative control) of test compound. As a positive control, cells plated in 384-well plates were incubated for 16 hrs at 27° C. to “temperature-correct” […]F508-CFTR. The cells were subsequently rinsed 3× with Krebs Ringers solution and loaded with the voltage-sensitive dyes. To activate […]F508-CFTR, 10 µM forskolin and the CFTR potentiator, genistein (20 µM), were added along with Cl^−-free medium to each well. The addition of Cl^−-free medium promoted Cl^− efflux in response to […]F508-CFTR activation and the resulting membrane depolarization was optically monitored using the FRET-based voltage-sensor dyes.
# To identify potentiators of […]F508-CFTR, a double-addition HTS assay format was developed. During the first addition, a Cl^−-free medium with or without test compound was added to each well. After 22 sec, a second addition of Cl^−-free medium containing 2-10 µM forskolin was added to activate […]F508-CFTR. The extracellular Cl^− concentration following both additions was 28 mM, which promoted Cl^− efflux in response to […]F508-CFTR activation and the resulting membrane depolarization was optically monitored using the FRET-based voltage-sensor dyes.
# Bath Solution #1: (in mM) NaCl 160, KCl 4.5, CaCl2 2, MgCl2 1, HEPES 10, pH 7.4 with NaOH.
# Chloride-free bath solution: Chloride salts in Bath Solution #1 are substituted with gluconate salts.
# CC2-DMPE: Prepared as a 10 mM stock solution in DMSO and stored at −20° C.
# DiSBAC2(3): Prepared as a 10 mM stock in DMSO and stored at −20° C.
# NIH3T3 mouse fibroblasts stably expressing […]F508-CFTR are used for optical measurements of membrane potential. The cells are maintained at 37° C. in 5% CO2 and 90% humidity in Dulbecco's modified Eagle's medium supplemented with 2 mM glutamine, 10% fetal bovine serum, 1× NEAA, […]-ME, 1× pen/strep, and 25 mM HEPES in 175 cm^2 culture flasks. For all optical assays, the cells were seeded at 30,000/well in 384-well matrigel-coated plates and cultured for 2 hrs at 37° C. before culturing at 27° C. for 24 hrs for the potentiator assay. For the correction assays, the cells are cultured at 27° C. or 37° C. with and without compounds for 16-24 hoursB.
# T1 sequence (P13569 with tags, fused parts or gaps DEL508-508): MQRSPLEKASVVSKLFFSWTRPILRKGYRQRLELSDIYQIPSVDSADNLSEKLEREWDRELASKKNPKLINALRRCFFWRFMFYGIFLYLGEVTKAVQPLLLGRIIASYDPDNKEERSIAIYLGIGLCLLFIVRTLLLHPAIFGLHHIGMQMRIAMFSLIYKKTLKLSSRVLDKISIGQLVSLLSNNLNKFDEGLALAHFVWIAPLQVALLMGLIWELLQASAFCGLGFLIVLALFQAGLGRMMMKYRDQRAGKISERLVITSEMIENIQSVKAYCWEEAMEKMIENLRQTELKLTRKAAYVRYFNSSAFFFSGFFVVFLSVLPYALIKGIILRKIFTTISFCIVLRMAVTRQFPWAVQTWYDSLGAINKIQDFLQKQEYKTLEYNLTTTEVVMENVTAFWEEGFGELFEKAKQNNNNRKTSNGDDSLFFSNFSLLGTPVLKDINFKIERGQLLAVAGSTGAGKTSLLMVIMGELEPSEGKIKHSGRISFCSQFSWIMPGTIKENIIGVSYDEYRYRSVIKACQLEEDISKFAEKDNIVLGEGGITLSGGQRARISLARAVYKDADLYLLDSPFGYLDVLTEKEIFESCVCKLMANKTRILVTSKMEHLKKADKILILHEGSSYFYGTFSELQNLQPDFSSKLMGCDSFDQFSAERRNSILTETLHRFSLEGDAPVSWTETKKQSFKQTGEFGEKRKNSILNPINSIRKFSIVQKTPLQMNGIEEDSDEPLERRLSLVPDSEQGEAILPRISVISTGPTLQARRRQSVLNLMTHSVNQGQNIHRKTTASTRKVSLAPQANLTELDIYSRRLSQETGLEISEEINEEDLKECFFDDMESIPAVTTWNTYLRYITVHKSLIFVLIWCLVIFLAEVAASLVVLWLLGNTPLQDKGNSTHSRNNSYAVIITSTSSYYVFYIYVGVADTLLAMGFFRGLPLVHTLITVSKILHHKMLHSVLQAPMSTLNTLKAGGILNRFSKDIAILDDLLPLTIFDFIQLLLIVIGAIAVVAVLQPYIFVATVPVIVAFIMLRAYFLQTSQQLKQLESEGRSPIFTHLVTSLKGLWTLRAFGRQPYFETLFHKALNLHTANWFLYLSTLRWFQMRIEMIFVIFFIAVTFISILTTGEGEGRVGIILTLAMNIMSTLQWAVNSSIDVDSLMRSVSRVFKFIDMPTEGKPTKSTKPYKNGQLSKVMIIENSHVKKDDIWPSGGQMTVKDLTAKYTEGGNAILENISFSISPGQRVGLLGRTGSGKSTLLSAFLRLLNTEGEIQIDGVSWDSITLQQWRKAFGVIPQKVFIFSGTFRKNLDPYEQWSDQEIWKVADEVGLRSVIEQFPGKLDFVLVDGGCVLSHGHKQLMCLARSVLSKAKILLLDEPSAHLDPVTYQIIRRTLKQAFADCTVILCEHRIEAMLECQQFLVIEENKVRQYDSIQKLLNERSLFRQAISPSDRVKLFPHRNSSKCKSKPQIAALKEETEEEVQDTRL
row,SMILES,Efficacy
1,COc1ccc(C2(CNc3nc(C(N)=O)cc(-c4ccccc4)n3)CC2)cc1OC [Compound 132],+++ (+++ corresponds to Efficacy greater than 100)
2,CCN(CCO)c1nc(C(N)=O)cc(-c2ccccc2)n1 [Compound 4],+++ (+++ corresponds to Efficacy greater than 100)
3,N#Cc1ccc(-c2cc(C(N)=O)nc(N3CCCCC3)n2)cc1 [Compound 130],+ (+ corresponds to Efficacy less than 50)
4,NC(=O)c1cc(-c2csc3ccccc23)nc(N2CCCCC2)n1 [Compound 144],++ (++ corresponds to Efficacy between 100 and 50)
5,CCN(CC)c1nc(C(=O)N2CCCCC2)cc(-c2ccccc2)n1 [Compound 157],+ (+ corresponds to Efficacy less than 50)
6,CCN(CC)c1nc(C(N)=O)cc(-c2ccccc2Oc2ccccc2)n1 [Compound 24],++ (++ corresponds to Efficacy between 100 and 50)
7,CC1CCN(c2nc(C(N)=O)cc(-c3ccccc3)n2)CC1 [Compound 165],+++ (+++ corresponds to Efficacy greater than 100)
8,NC(=O)c1cc(-c2cccc(C(F)(F)F)c2)nc(N2CCCCC2)n1 [Compound 185],+ (+ corresponds to Efficacy less than 50)
9,CCCN(CC1CC1)c1nc(C(=O)N(C)C)cc(-c2ccccc2)n1 [Compound 150],++ (++ corresponds to Efficacy between 100 and 50)
10,CC1CN(c2nc(C(N)=O)cc(-c3ccccc3)n2)CC(C)O1 (centres unmarked) [Compound 134],++ (++ corresponds to Efficacy between 100 and 50)
11,NC(=O)c1cc(-c2ccccc2)nc(N2CCC(C(=O)c3ccc(F)cc3)CC2)n1 [Compound 60],++ (++ corresponds to Efficacy between 100 and 50)
12,CCN(CC)c1nc(C(N)=O)cc(-c2cccc(NC(C)=O)c2)n1 [Compound 62],++ (++ corresponds to Efficacy between 100 and 50)
13,NC(=O)c1cc(-c2ccccc2)nc(-n2cccn2)n1 [Compound 57],+ (+ corresponds to Efficacy less than 50)
14,CCCCN(CCCC)c1nc(C(N)=O)cc(-c2ccccc2)n1 [Compound 171],++ (++ corresponds to Efficacy between 100 and 50)
15,CCCN(CCC)c1nc(C(N)=O)cc(-c2ccccc2)n1 [Compound 23],++ (++ corresponds to Efficacy between 100 and 50)
16,CCN(CC)c1nc(C(N)=O)cc(-c2ccc(F)c(C)c2)n1 [Compound 131],+++ (+++ corresponds to Efficacy greater than 100)
17,CCN(CC)c1nc(C(N)=O)cc(-c2ccccc2)n1 [Compound 119],+++ (+++ corresponds to Efficacy greater than 100)
18,CCN(CC)c1nc(C(N)=O)cc(-c2ccc(OC)cc2OC)n1 [Compound 172],+++ (+++ corresponds to Efficacy greater than 100)
19,CCCCCN(C)c1nc(C(N)=O)cc(-c2ccccc2)n1 [Compound 186],+++ (+++ corresponds to Efficacy greater than 100)

row,SMILES,Efficacy
1,CCN(CC)c1nc(C(N)=O)cc(-c2ccc(CC(C)C)cc2)n1 [Compound 184],++ (++ corresponds to Efficacy between 100 and 50)
2,COc1cccc(-c2cc(C(N)=O)nc(NCc3ccco3)n2)c1 [Compound 173],++ (++ corresponds to Efficacy between 100 and 50)
3,NC(=O)c1cc(-c2cccc(Cl)c2Cl)nc(N2CCCCC2)n1 [Compound 95],++ (++ corresponds to Efficacy between 100 and 50)
4,CCN(CC)c1nc(C(N)=O)cc(-c2cccc(C(=O)OC)c2)n1 [Compound 35],+++ (+++ corresponds to Efficacy greater than 100)
5,CCOc1ccc(-c2cc(C(N)=O)nc(N(CC)CC)n2)cc1 [Compound 20],++ (++ corresponds to Efficacy between 100 and 50)
6,CCCCN(Cc1ccccc1)c1nc(C(N)=O)cc(-c2ccccc2)n1 [Compound 52],++ (++ corresponds to Efficacy between 100 and 50)
7,CCN(CC)c1nc(C(N)=O)cc(-c2c(F)cccc2F)n1 [Compound 125],++ (++ corresponds to Efficacy between 100 and 50)
8,CCN(CC)c1nc(C(N)=O)cc(-c2cc(F)cc(F)c2)n1 [Compound 151],+++ (+++ corresponds to Efficacy greater than 100)
9,C=CCN(CC=C)c1nc(C(N)=O)cc(-c2ccccc2)n1 [Compound 69],+++ (+++ corresponds to Efficacy greater than 100)
10,CCN(CC)c1nc(C(N)=O)cc(-c2cccc(C(F)(F)F)c2)n1 [Compound 75],++ (++ corresponds to Efficacy between 100 and 50)
11,CCCCCCN(C)c1nc(C(N)=O)cc(-c2ccccc2)n1 [Compound 201],+++ (+++ corresponds to Efficacy greater than 100)
12,C=CCNc1nc(C(N)=O)cc(-c2ccccc2OC)n1 [Compound 178],+++ (+++ corresponds to Efficacy greater than 100)
13,CCN(CC)C(=O)C1CCCN(c2nc(C(N)=O)cc(-c3ccccc3)n2)C1 (centres unmarked) [Compound 177],++ (++ corresponds to Efficacy between 100 and 50)
14,NC(=O)c1cc(-c2ccc(Cl)c(Cl)c2)nc(N2CCCCC2)n1 [Compound 140],++ (++ corresponds to Efficacy between 100 and 50)
15,CCNc1nc(C(N)=O)cc(-c2ccc(OC)cc2)n1 [Compound 102],++ (++ corresponds to Efficacy between 100 and 50)
16,NC(=O)c1cc(-c2cc3ccccc3s2)nc(N2CCCCC2)n1 [Compound 170],+ (+ corresponds to Efficacy less than 50)
17,CN(C)C(=O)c1cc(-c2ccccc2)nc(NCc2ccco2)n1 [Compound 128],+ (+ corresponds to Efficacy less than 50)
18,NC(=O)c1cc(-c2ccccc2)nc(N2CC=C(c3ccc(Cl)cc3)CC2)n1 [Compound 3],++ (++ corresponds to Efficacy between 100 and 50)

# Same assay, conditions: potency range; NIH3T3 mouse fibroblasts stably expressing […]F508-CFTR (optical assays)
row,SMILES,EC50 [µM]
1,COc1ccc(C2(CNc3nc(C(N)=O)cc(-c4ccccc4)n3)CC2)cc1OC [Compound 132],> 5
2,CCN(CCO)c1nc(C(N)=O)cc(-c2ccccc2)n1 [Compound 4],> 5
3,N#Cc1ccc(-c2cc(C(N)=O)nc(N3CCCCC3)n2)cc1 [Compound 130],> 5
4,NC(=O)c1cc(-c2csc3ccccc23)nc(N2CCCCC2)n1 [Compound 144],> 5
5,CCN(CC)c1nc(C(=O)N2CCCCC2)cc(-c2ccccc2)n1 [Compound 157],> 5
6,CCN(CC)c1nc(C(N)=O)cc(-c2ccccc2Oc2ccccc2)n1 [Compound 24],< 1
7,CC1CCN(c2nc(C(N)=O)cc(-c3ccccc3)n2)CC1 [Compound 165],> 5
8,NC(=O)c1cc(-c2cccc(C(F)(F)F)c2)nc(N2CCCCC2)n1 [Compound 185],> 5
9,CCCN(CC1CC1)c1nc(C(=O)N(C)C)cc(-c2ccccc2)n1 [Compound 150],1 to 5
10,CC1CN(c2nc(C(N)=O)cc(-c3ccccc3)n2)CC(C)O1 (centres unmarked) [Compound 134],> 5
11,NC(=O)c1cc(-c2ccccc2)nc(N2CCC(C(=O)c3ccc(F)cc3)CC2)n1 [Compound 60],> 5
12,CCN(CC)c1nc(C(N)=O)cc(-c2cccc(NC(C)=O)c2)n1 [Compound 62],> 5
13,NC(=O)c1cc(-c2ccccc2)nc(-n2cccn2)n1 [Compound 57],> 5
14,CCCCN(CCCC)c1nc(C(N)=O)cc(-c2ccccc2)n1 [Compound 171],< 1
15,CCCN(CCC)c1nc(C(N)=O)cc(-c2ccccc2)n1 [Compound 23],1 to 5
16,CCN(CC)c1nc(C(N)=O)cc(-c2ccc(F)c(C)c2)n1 [Compound 131],1 to 5
17,CCN(CC)c1nc(C(N)=O)cc(-c2ccccc2)n1 [Compound 119],< 1
18,CCN(CC)c1nc(C(N)=O)cc(-c2ccc(OC)cc2OC)n1 [Compound 172],1 to 5
19,CCCCCN(C)c1nc(C(N)=O)cc(-c2ccccc2)n1 [Compound 186],1 to 5

row,SMILES,EC50 [µM]
1,CCN(CC)c1nc(C(N)=O)cc(-c2ccc(CC(C)C)cc2)n1 [Compound 184],< 1
2,COc1cccc(-c2cc(C(N)=O)nc(NCc3ccco3)n2)c1 [Compound 173],> 5
3,NC(=O)c1cc(-c2cccc(Cl)c2Cl)nc(N2CCCCC2)n1 [Compound 95],1 to 5
4,CCN(CC)c1nc(C(N)=O)cc(-c2cccc(C(=O)OC)c2)n1 [Compound 35],< 1
5,CCOc1ccc(-c2cc(C(N)=O)nc(N(CC)CC)n2)cc1 [Compound 20],< 1
6,CCCCN(Cc1ccccc1)c1nc(C(N)=O)cc(-c2ccccc2)n1 [Compound 52],1 to 5
7,CCN(CC)c1nc(C(N)=O)cc(-c2c(F)cccc2F)n1 [Compound 125],< 1
8,CCN(CC)c1nc(C(N)=O)cc(-c2cc(F)cc(F)c2)n1 [Compound 151],1 to 5
9,C=CCN(CC=C)c1nc(C(N)=O)cc(-c2ccccc2)n1 [Compound 69],1 to 5
10,CCN(CC)c1nc(C(N)=O)cc(-c2cccc(C(F)(F)F)c2)n1 [Compound 75],< 1
11,CCCCCCN(C)c1nc(C(N)=O)cc(-c2ccccc2)n1 [Compound 201],1 to 5
12,C=CCNc1nc(C(N)=O)cc(-c2ccccc2OC)n1 [Compound 178],1 to 5
13,CCN(CC)C(=O)C1CCCN(c2nc(C(N)=O)cc(-c3ccccc3)n2)C1 (centres unmarked) [Compound 177],> 5
14,NC(=O)c1cc(-c2ccc(Cl)c(Cl)c2)nc(N2CCCCC2)n1 [Compound 140],1 to 5
15,CCNc1nc(C(N)=O)cc(-c2ccc(OC)cc2)n1 [Compound 102],> 5
16,NC(=O)c1cc(-c2cc3ccccc3s2)nc(N2CCCCC2)n1 [Compound 170],1 to 5
17,CN(C)C(=O)c1cc(-c2ccccc2)nc(NCc2ccco2)n1 [Compound 128],> 5
18,NC(=O)c1cc(-c2ccccc2)nc(N2CC=C(c3ccc(Cl)cc3)CC2)n1 [Compound 3],> 5
